Article PMC6332393, “A Fungal α-Galactosidase from Tricholoma matsutake with Broad Substrate Specificity and Good Hydrolytic Activity on Raffinose Family Oligosaccharides” (Molecules, 2015)

Columns and labels:
α-galactosidase TMG [1] = test system: T1, α-galactosidase TMG; experiment: p-nitrophenol release at […] nm; Grafit fit; type: biochemical, Tricholoma matsutake; conditions: pH 4.6, 50 °C (standard assay); 1-10 mM substrate; apparent Km; unit Mm [sic]
T1 construct: native, purified from fruiting bodies (Yunnan, China); monomer, 47 kDa by SDS-PAGE and gel filtration; inner peptides by LC-MS/MS GNVMVSLG, LLNMND, INVNDS; not cloned

α-galactosidase TMG [2] = test system: T1, α-galactosidase TMG; experiment: reducing sugar release ([…],5-dinitrosalicylic acid); Grafit fit; type: biochemical, Tricholoma matsutake; conditions: 100 mM NaAc-HAc pH 4.6, 40 °C; 1-10 mM substrate; apparent Km; unit Mm [sic]

Km (α-galactosidase TMG [1]) [µM] | Km (α-galactosidase TMG [2]) [mM] | Structure (SMILES)
990 | – | O=[N+]([O-])c1ccc(O[C@H]2O[C@H](CO)[C@H](O)[C@H](O)[C@H]2O)cc1 [pNPGal, 4-Nitrophenyl α-D-galactopyranoside]
– | 3.7 | OC[C@H]1O[C@H](OC[C@H]2O[C@H](O[C@]3(CO)O[C@H](CO)[C@@H](O)[C@@H]3O)[C@H](O)[C@@H](O)[C@@H]2O)[C@H](O)[C@@H](O)[C@H]1O [raffinose]
– | 3.5 | OC[C@H]1O[C@H](OC[C@H]2O[C@H](OC[C@H]3O[C@H](O[C@]4(CO)O[C@H](CO)[C@@H](O)[C@@H]4O)[C@H](O)[C@@H](O)[C@@H]3O)[C@H](O)[C@@H](O)[C@H]2O)[C@H](O)[C@@H](O)[C@H]1O [stachyose]
